Format in all cases: physicochemical
The nature of data set [1]: UV-CD kinetics after dissolution in D2O, read at 198 nm and 215 nm. How it is done:
(§1) The Raman spectra were obtained with the 442 nm (40 mW) excitation from a HeCd laser (Model IK 4601R-E, Kommon Electrics, USA) and recorded with a RM 100 Remishaw confocal microscope. The UV ECD spectra in the wavelength range of 180-250 nm of peptides were measured with a JASCO J-810 spectrapolarimeter in a 0.1 mm quartz cell with 0.05 nm resolution. Samples were placed in a nitrogen purged JASCO CD module. The temperature at the cuvette was controlled by means of a Peltier-type heating system (accuracy ±1° C.) set to 20° C. The spectra were obtained by averaging ten scans and were collected as ellipticity as a function of wavelength, and converted to units of molar absorptivities via the equation: […]
The UV-CD spectra of Ac-(AAKA)4-NH2 was acquired at various times after dissolution in deuterated water (D2O). The results are illustrated in FIG. 4. Initially a significant percentage of β-structure was observed, and in a time-dependent manner more flexible PPII-like conformations were observed.
The UV-CD kinetics of Ac-(AAKA)4-NH2, in terms of the readings at 198 nm and 215 nm as a function of time, were monitored. The results are illustrated in FIG. 5. The plots were fit to bi-exponential functions, reflecting a fast phase (˜18 minutes) and a slow phase (>300 minutes). The fast phase may reflect the kinetics of hydration/dissolution of the peptide. […]

Data set [2] in a line: Temperature-dependent UV-CD spectra. The note with it: 3.5 mM in D2O, pH 2.7; intersection of two fitted straight lines. How it is done: as §1
The temperature-dependent UV-CD spectra of 3.5 mM Ac-(AAKA)4-NH2 measured at acid pH is illustrated in FIG. 8. […] The inset of FIG. 8 illustrates the change of the Δε measured at 214.5 nm as a function of temperature, reflecting the decrease of the β-sheet content with increasing temperature.
Two different modes were found in the relationship between the n-sheet content and temperature. The β-sheet content, as evaluated by Δε, […] linearly with temperatures below 300 K and remained almost constant after 350 K. The transition temperature between these two modes was around 320 K, as is defined by the intersection between the two straight lines, fitting the initial and final behaviors.

A further data set in a line: Hydrogel formation. The procedure: For the FT-IR (Fourier transform infrared), CD (circular dichroism), and Raman measurements of Ac-(AAKA)4-NH2, unless otherwise described, the peptide was dissolved in acidic D2O (pD=1.4) at a concentration of ˜15 mg/mL (˜10.5 mM), where the D2O was made acidic by the addition of DCl (Sigma-Aldrich). […] The measurements for the gelated state of the 12-mer, Ac-(AAKA)3-NH2, were carried out similarly, at a concentration of ˜27 mg/mL in D2O (pD=1.4). For the ECD measurements, Ac-(AAKA)3-NH2 and (AAKA)4 were dissolved in acidic D2O at concentrations of 2.4 mg/mL and 1 mg/mL, respectively, and the samples were measured at room temperature.
NaCl was added to a freshly aqueous solution of (AAKA)4, wherein the concentration of peptide was equal to or higher than 0.5 wt %. […] An example of such hydrogel is illustrated in FIG. 15.

The nature of data set [3]: Rheology (viscosity) of peptide solutions with NaCl. The procedure: Rheology measurements were made for solutions of (AAKA)4 (concentration of 5 mg/mL or 3.5 mM) in 0.5 M and 1.0 M NaCl, as shown in FIG. 16. […] The shear-thinning behavior observed in these experiments was consistent with other oligopeptides hydrogels (Schneider, […], J. Am. Chem. Soc. 124:15030).
Another rheology experiment is illustrated in FIG. 17, for a solution of (AAKA)4 (concentration of 5 mg/mL) in 0.0 M, 1.0 M and 2.0 M NaCl. FIG. 17 illustrates three experimental curves for each concentration of NaCl.
Yet another rheology experiment is illustrated in FIG. 18, for a 5 mg/mL and a 10 mg/mL solution of (AAKA)4 in 1 M NaCl. FIG. 18 illustrates three experimental curves for each value of concentration of peptide.
As illustrated above, (AAKA)4 was conformationally unstable upon dissolution in water, prior to the addition of salt and consequent hydrogel formation. […] This is illustrated in FIG. 19, where the viscosity of a 5 mg/mL (AAKA)4 solution comprising 2 M NaCl was compared with the viscosity of a similar peptide solution wherein NaCl was added after ˜24 hours.

Ends that are not written are not given here.

Experimental findings from US20100221341A1, “Alanine-Based Peptide Hydrogels” (Drexel University, priority 2009, published 2010) are described below.

For “Ac-AAKAAAKAAAKAAAKA-NH2 [Ac-(AAKA)4-NH2]”, in data set [1], the “fast phase of UV-CD kinetics (bi-exponential fit)” value was around 18 min and the “slow phase of UV-CD kinetics (bi-exponential fit)” value was above 300 min. Moreover, the “transition temperature of β-sheet content (Δε at 214.5 nm)” value in data set [2] is “around 320 K”. In “Hydrogel formation” (~15 mg/mL (~10.5 mM) in acidic D2O, pD 1.4), the “hydrogel formation after dissolution” value is “formed a hydrogel shortly after dissolution”.
On to AAKAAAKAAAKAAAKA [(AAKA)4], for which, in data set [3] (5 mg/mL (3.5 mM) in 0.5 M and 1.0 M NaCl), the “viscosity as a function of peptide and NaCl concentration” value is “more viscous gels”. Also, the “viscosity of hydrogel when salt is added with delay” value in data set [3] (5 mg/mL, 2 M NaCl added after ~24 hours, versus NaCl added at time zero) was “much less viscous and rigid hydrogel”. For the same substance, the “hydrogel formation on addition of NaCl” value is “did not result in hydrogel formation” in the data set “Hydrogel formation” (1-year-old sample, 5 mg/mL (3.5 mM)) and “rigid self-supporting hydrogel” in the data set “Hydrogel formation” (fresh aqueous solution, peptide equal to or higher than 0.5 wt %, final NaCl higher than 1.0 M).
